The test system of data set [1] is mouse. As to the kind of experiment: Traction Test (neurosedative activity). The class given is in vivo. Conditions: ip, 0.5 h, mice, intraperitoneal, 30 minutes after administration, dose at which 50% of the animals do not reestablish themselves in 5 seconds, read-out: DE50, Traction Test. From the text: This test consisted of suspending a mouse by the front paws from a horizontal metal wire and in a time of less than 5 seconds, the normal mouse will effect a reestablishment by managing to place at least one hind paw on the wire. […]

Data set [2] concerns mouse. The experiment in a line: Chimney Test (neurosedative activity). Type of data set: in vivo. The conditions noted are these: ip, 0.5 h, mice, intraperitoneal, 30 minutes after administration, read-out: DE50, Chimney Test. How it is done: This test consisted of placing a mouse in the end of a glass tube 30 cm long with a diameter adapted to the size of the mouse. The tube was straightened vertically in a rapid manner with the head of the mouse at the base. The normal uprighting time for the mouse in the tube was less than 30 seconds. The test was conducted 30 minutes after intraperitoneal administration of the test product and the DE50 dose was determined and is reported in Table I.

Data set [3] is described as follows: Antagonism to toxicity of amphetaminic compounds. Type of data set: in vivo. The conditions noted are these: Mus musculus, ip; male mice, intraperitoneal 30 minutes before 15 mg/kg i.p. dexamphetamine sulfate; group mortality at 24 hours; read-out: DE50, Antagonism to toxicity of amphetamines. Here is the method: C. Antagonism to toxicity of amphetaminic compounds
This test was determined on groups of 10 male mice in a crystallizer with a 20 cm diameter and a 9 cm height covered with a grill. The animals received an intraperitoneal injection of 15 mg/kg of dexamphetamine sulfate 30 minutes after intraperitoneal administration of the test product. The group mortality was counted 24 hours after the injection of dexamphetamine sulfate and the DE50 dose was determined.

The next data set in a line: Acute toxicity. Conditions: mouse, in vivo, ip; mice, intraperitoneal, mortality after 48 hours; read-out: DL50, acute toxicity. Here is the method:
The acute toxicity was determined by intraperitoneal administration of the test compounds to mice in increasing doses and determination of the mortality after 48 hours to determine the DL50 dose.

Data set [4] in a line: Antagonism to stereotypes provoked by apomorphine. Conditions: Rattus norvegicus, ip; male rats, intraperitoneal 30 minutes before 1.5 mg intravenous apomorphine hydrochloride; read-out: DE50, antagonism to stereotypes provoked by apomorphine. Type of data set: in vivo. Here is the method: B. Antagonism to sterotypes provoked by apomorphine
(§1) This test used groups of 5 male rats in a test inspired by Janssen et al. [Arzn. Forsch., Vol. 15 (1965), p. 104-117 and Vol. 17 (1967), p. 841-854] with each rat in an individual grill cage. Each animal received an intravenous injection in the vein of the penis of 1.5 mg of apomorphine hydrochloride 30 minutes after intraperitoneal administration of the test compound. The animals, control and treated, were observed 1,5,10 and 15 minutes after the last injection and the stereotype movements of the buccal sphere were evaluated for their intensity on a scale of 0 to 3 as by Boissier et al. [Therapie., Vol. 25 (1970), p. 939-949]. The height of the test was determined and the DE50 dose was ascertained to be 10 mg/kg.

Data set [5] can be described thus: Antagonism to vomitting provoked by apomorphine. Type of data set: in vivo. Conditions: Canis lupus familiaris, sc, 0.5 h; dogs, subcutaneous 30 minutes before 0.1 mg/kg s.c. apomorphine hydrochloride; vomitting counted over one half hour; read-out: DE50, antagonism to vomitting provoked by apomorphine. Here is the method: C. Antagonism to vomitting provoked by apomorphine
This test was effected on dogs as reported by Chen et al. [J. Pharmac. exp. Therap. Vol. 93 (1950), p. 245-250]. The test product was subcutaneously administered 30 minutes before subcutaneous administration of 0.1 mg/kg of apomorphine hydrochloride. […] The cross tests were repeated after 8 days on lots of 2 dogs and the DE50 dose was determined to be 0.005 mg/kg.

The nature of the next data set: Cataleptic Power. The class given is in vivo, young rats. Conditions: for cataleptic activity (in words): rat, in vivo. Here is the method:
D. Cataleptic Power This test is described by Boissier et al. [Therapie., Vol. 18 (1963), p. 1257-1277] and was effected on young rats by crossing the homolateral paws and noting the intensity of catalepsy. The test product was intraperitoneally administered and the DE50 was formed to be greater than 60 mg/kg.

Data set [6] in a line: Antipsychotic activity, overall conclusion from the tests on the product of Example 2. Conditions: in vivo. How it is done:
This test consisted of using groups of 5 rats which were placed in individual grill cages. The rats received intraperitoneally 8 mg/kg of dexamphetamine sulfate 30 minutes after intraperitoneal administration of the test products and the test used controls and treated animals. The rating scale was that described by Halliwel et al. [Brit. J. Pharmacol., Vol. 23 (1964), p. 330-350] and the DE50 of the product was […].
as §1
This test was effected on dogs as reported by Chen et al. [J. Pharmac. exp. Therap. Vol. 93 (1950), p. 245-250]. […] The cross tests were repeated after 8 days on lots of 2 dogs and the DE50 dose was determined to be 0.005 mg/kg.

Where [7] appears, read: listed as acid succinate of N-[β-(4'-(3"-indolyl)-piperidino)-ethyl]-4-fluoro-benzamide.

Consider `O=C(NCCN1CCC(c2c[nH]c3ccccc23)CC1)c1ccccc1` [Example 1, N-[β-(4'-(3"-indolyl)-piperidino)-ethyl]-benzamide], for which the ED50 in the data set with mouse [1] turned out to be 18 mg/kg; in the data set on mouse [2] it was 7 mg/kg; in data set [3], 3 mg/kg. Besides, the LD50 at 48 h in the data set “Acute toxicity” was determined as 300 mg/kg.
The like results for `O=C(NCCCN1CCC(c2c[nH]c3ccccc23)CC1)c1ccc(F)cc1` [Example 3, N-[γ-(4'-(3"-indolyl)-piperidino)-propyl]-p-fluorobenzamide] were, in that order, 20 mg/kg, 5 mg/kg, 8 mg/kg and 60 mg/kg.
As for `COc1ccc2c(C3CCN(CCNC(=O)c4ccc(F)cc4)CC3)c(C)[nH]c2c1` [Example 5, N-[β-(4'-(2"-methyl-6"-methoxy-3"-indolyl)-piperidino)-ethyl]-p-fluoro-benzamide], the ED50 is 25 mg/kg in the data set on mouse [1], 17 mg/kg in the data set on mouse [2] and 3 mg/kg in data set [3]. Further, the LD50 at 48 h in “Acute toxicity” was determined as 400 mg/kg.
`COc1ccc(S(N)(=O)=O)cc1C(=O)NCCN1CCC(c2c[nH]c3ccccc23)CC1` [Example 8, N-[β-(4'-(3"-indolyl)-piperidino)-ethyl]-2-methoxy-5-sulfamoyl-benzamide]: the LD50 at 48 h in “Acute toxicity” came to 800 mg/kg.
`O=C(NCCN1CCC(c2c[nH]c3ccccc23)CC1)c1ccc(F)cc1` [Example 2, N-[β-(4'-(3"-indolyl)-piperidino)-ethyl]-p-fluoro-benzamide acid succinate]: the ED50 was 6.5 mg/kg with mouse [1]; 2 mg/kg with mouse [2]; 0.3 mg/kg in data set [3]; 10 mg/kg in data set [4]; 0.005 mg/kg in data set [5]; over 60 mg/kg in “Cataleptic Power” (Rattus norvegicus, ip, young rats, intraperitoneal, crossing the homolateral paws, read-out: DE50, cataleptic power). Besides, the “cataleptic activity (in words)” value is recorded as “practically devoid of cataleptigenic activity” in the data set “Cataleptic Power” and “without cataleptic properties” in the data set “Cataleptic Power” (setting [7]). Moreover, the LD50 at 48 h in “Acute toxicity” amounted to 125 mg/kg. In addition, the “antipsychotic activity (in words)” value in data set [6] is recorded as “important antipsychotic activity”; in data set [6] (setting [7]), “antipsychotic activity”.
On to `COc1cc(N)c(Cl)cc1C(=O)NCCN1CCC(c2c[nH]c3ccccc23)CC1` [Example 7, N-[β-(4'-(3"-indolyl)-piperidino)-ethyl]-2-methoxy-4-amino-5-chloro-benzamide], for which the LD50 at 48 h in the data set “Acute toxicity” is over 800 mg/kg.
As to `COc1cc(F)ccc1C(=O)NCCN1CCC(c2c[nH]c3ccccc23)CC1` [Example 4, N-[β-(4'-(3"-indolyl)-piperidino)-ethyl]-p-fluoro-o-methoxy-benzamide], the ED50 was found to be 8.5 mg/kg with mouse [1], 4.5 mg/kg in the data set with mouse [2] and 0.35 mg/kg in data set [3]. For the same compound, the LD50 at 48 h in “Acute toxicity” was over 800 mg/kg.
